This note sets out measurements from patent publication US11865109B2 (NOVARTIS AG, priority 2019, dated 2024).

Holding throughout (type): in vivo, human
Series [1] can be described thus: Relative bioavailability and food effect study, single oral dose of 450 mg, plasma PK of Compound 1. The text has this:
(§1) Pharmacokinetic samples were obtained and evaluated in all subjects.

The nature of series [2]: ADME study: PK of total radioactivity in blood and plasma (LSC). Further details: AUC (last), blood radioactivity / AUC (last), plasma radioactivity / AUC (inf), blood radioactivity: concentration or dose not given beside the values. The method, then:
(§2) Six healthy male subjects of aged 18 to 55 years (inclusive) were included in this study.
The study consisted of a 28-day screening period (including baseline period of 1 day) and 12 days of treatment period. The study design is depicted in FIG. 10.
(§3) All treatment administrations (Day 1 to Day 12) occurred approximately 30 minutes following consumption of a standardized meal. Treatments were administered with ˜240 mL water as 4×100 mg hard gelatin capsules. The radioactive release criteria was met and all the subjects were released from the study site on Day 14 afternoon.
(§4) The PK blood sample collection schedule was appropriate to characterize the PK of Compound 1 and any circulating major metabolites. The urine and feces collection schedule was set up adequately to ensure complete excretion of radioactivity. Due to the non-linear PK of Compound 1, the study was conducted at steady state.
(§5) Subjects who met the eligibility criteria were admitted to the study site approximately 24 hours prior to dosing for baseline evaluations. […] Safety assessments included physical examinations, electrocardiograms (ECGs), vital signs, standard clinical laboratory evaluations (hematology, blood chemistry, and urinalysis), AE and serious adverse event (SAE) monitoring.
Blood, plasma, urine, and feces samples were obtained and evaluated in all subjects. […] If the co-efficient of variation of replicate radioactivity measurements was >20%, the sample was re-homogenized and/or reanalyzed.
Single-dose blood and plasma PK parameters (Cmax, Tmax, AUClast and AUCinf), for total radioactivity were derived from plasma and blood concentration versus sampling time data. PK parameters were determined using non-compartmental method(s) with Phoenix WinNonLin (Version 6.4) for total radioactivity.

Series [3] is described as follows: ADME study: plasma PK of Compound 1 at steady state (LC-MS/MS). The method, then:
as §2
All treatment administrations (Day 1 to Day 12) occurred approximately 30 minutes following consumption of a standardized meal. Treatments were administered with ˜240 mL water as 4×100 mg hard gelatin capsules.
as §1
The PK parameters were based on the actual recorded sampling times and non-compartmental method(s) with Phoenix WinNonLin (Version 6.4). The terminal rate constant (λz) was determined from automated (WinNonlin algorithm) linear regression of at least the last three points with non-zero concentrations in the terminal phase of the log-transformed concentration-time profile.

Series [4] can be described thus: ADME study: metabolite pattern analysis in plasma. The method, then:
as §2, §3
(§6) Profiles of radioactive metabolites in urine and feces pools representing more than 90% of total radioactivity in the collected excreta of individual subjects were specified as dose proportion (%) per metabolite.
Pharmacokinetic samples were obtained and evaluated in all subjects. Compound 1 was determined in plasma by a validated liquid chromatography with tandem mass spectrometry (LC-MS/MS) method using electrospray ionization. A non-validated method was used to analyze metabolites of Compound 1.

A short description of series [5]: ADME study: excretion/mass balance of radioactivity in urine and feces. How it is done:
as §2, §3, §4
[14C]-radioactivity data, which was based on LSC analyses, for excreta was used to calculate percentage of dose excreted via urine or feces as well as a total percent of dose recovered.
as §6

Series [6] can be described thus: ADME study: safety and tolerability. The note with it: multiple-dose oral 400 mg Compound 1 and single oral 400 mg [14C]Compound 1, healthy subjects. The method, then:
as §2, §3, §5

The mark [7] stands for this setting: blood, total radioactivity, mean of N = 6.
[8] abbreviates: single oral 400 mg [14C]Compound 1 at steady state.
The mark [9] stands for this setting: male, human, oral, 400 mg, Day 5, 0-12 hours, steady state, mean of N = 6.
The mark [10] stands for this setting: plasma time pools of N = 6 subjects, metabolite pattern analysis.
Setting [11] is: time period 0-216 h, mean, radioactivity after [14C]Compound 1.

In series [1] (both sexes, human, plasma, single oral 450 mg, all fasted treatments), `COc1nc(C(=O)NC[C@](C)(O)C(F)(F)F)c(N)cc1C(F)(F)F` [Compound 1, (S)-3-amino-6-methoxy-N-(3,3,3-trifluoro-2-hydroxy-2-methylpropyl)-5-(trifluoromethyl)picolinamide] had a half-life of about 16 h. Besides, the Food effect result in series [1] (single 450 mg dose, high-fat meal vs fasted) is recorded as “positive food effect”. The “AUC (inf), blood radioactivity” value in series [2] (blood, total radioactivity, AUCinf = AUClast + AUCt-inf, mean of N = 6) turned out to be 27900 ng-eq·h/mL. In addition, the “Tlast (range), blood radioactivity” value in series [2] (blood, total radioactivity, N = 6) was 24 to 48 h. Further, the “AUC (last), blood radioactivity” value in series [2] (blood, total radioactivity, linear trapezoidal rule, mean of N = 6) stood at 24700 ng-eq·h/mL. In series [2] (setting [7]), the “AUC % Extrap, blood radioactivity” value is 12.2 % of AUCinf and the “AUC (% of 14C-AUCinf plasma), blood radioactivity” value is listed as 57.9 % of 14C-AUCinf plasma. The “Cmax, blood radioactivity” value in series [2] (blood, total radioactivity, oral 400 mg [14C]Compound 1, mean of N = 6) came to 2670 ng-eq/mL. Also, in series [2] (plasma, total radioactivity, N = 6), the “Tlast (range), plasma radioactivity” value lay within 48 to 96 h. Also, the “AUC (last), plasma radioactivity” value in series [2] (plasma, total radioactivity, linear trapezoidal rule, mean of N = 6) is given as 45600 ng-eq·h/mL. The “AUC % Extrap, plasma radioactivity” value in series [2] (plasma, total radioactivity, mean of N = 6) is on record as 5.74 % of AUCinf. In series [2] (plasma, total radioactivity, oral 400 mg [14C]Compound 1, mean of N = 6), the “Cmax, plasma radioactivity” value is recorded as 4280 ng-eq/mL. In addition, the “Fraction of total radioactivity in blood confined to the plasma compartment (Fp)” value in series [2] (setting [8]) is reported as 93.3±3.35%. The “Tlast (range), plasma Compound 1” value in series [3] (Day 5, 0-12 hours) came to 12 h. In series [3] (Day 5, 0-12 hours, mean of N = 6), the “AUC (% of 14C-AUCinf plasma), plasma Compound 1” value is given as 16.6 % of 14C-AUCinf plasma. Also, the CL/F in series [3] (male, human, oral, 400 mg b.i.d., steady state, CV % 45.1%, read-out: Steady state plasma clearance (CLss/F), mean (converted)) was 947 mL/min. Also, in series [3] (male, human, oral, 400 mg b.i.d., steady state, CV % 48.1%, read-out: Apparent volume of distribution (Vz/F), mean), the Vd/F was found to be 335 L. The Tmax in series [3] (male, human, oral, 400 mg b.i.d., steady state, Day 5, range 1.0 hour-4.0 hours) came out at 4 h. In series [3] (setting [9]), this compound came in with an AUC(0-t) of 8170 ng·h/mL and a Cmax of 1680 ng/mL. For the same compound, in series [4] (male, human, oral, 400 mg, plasma time pools of N = 6 subjects, AUCinf = AUClast + AUCt-inf), the AUC(0-inf) turned out to be 22.7 µM·h. Moreover, in series [4] (male, human, oral, 400 mg, plasma time pools of N = 6 subjects, metabolite pattern analysis, linear trapezoidal method, read-out: AUC0-48 h in plasma), the AUC(0-t) stood at 22.1 µM·h. Moreover, the half-life in series [4] (male, human, oral, 400 mg, plasma time pools of N = 6 subjects, metabolite pattern analysis, read-out: T½ in plasma (converted)) is 11.2 h. In series [4] (metabolite pattern analysis, oral 400 mg [14C]Compound 1 at steady state), the “Proportion of the plasma 14C-AUC0-48 h” value is 18.5%. The Extent of metabolism result in series [4] (oral 400 mg [14C]Compound 1 at steady state, humans) is reported as “extensively metabolized”. Further, in series [4] (setting [10]), the “AUC0-48 h, percent of total radiolabeled components AUC0-48 h” value is on record as 18.5% and the “AUCinf, percent of total radiolabeled components AUCinf” value was 17.5%. Also, in series [5] (setting [11]), the “14C-Excretion, Feces” value was 5.2 % of dose and the “14C-Excretion, Urine” value is on record as 92.3 % of dose. The “14C-Excretion, Total” value in series [5] (time period 0-216 h, urine plus feces, mean, radioactivity after [14C]Compound 1) was 97.6 % of dose. Also, the “Compound 1 detected in urine” value in series [5] (within 0-96 hours) is 3.35 % of the dose. For the same compound, the Safety and tolerability entry in series [6] is “safe and well tolerated”.
With `COc1nc(C(=O)NC[C@](C)(O)C(F)(F)F)c(N)cc1C(F)(F)F` [[14C]Compound 1], in series [2] (setting [8]), the “Time post-dose up to which radioactivity was detected in blood” value is listed as “up to 48 hours” and the “Time post-dose up to which radioactivity was detected in plasma” value is at most 96 h. For the same compound, the “Radioactivity in samples collected after 96 hours post-dose” value in series [5] (after 96 hours post-dose of [14C]Compound 1) is listed as “less than 3 % of the dose”. Also, the “Excretion of radioactivity, mean” value in series [5] (after 9 days, range 93.4%-99.1%) was determined as 97.6%. In series [5] (oral 400 mg [14C]Compound 1 at steady state, N=6, range 89.7%-97.40%), the “Extent of oral absorption” value worked out at 93.4%. Further, the “Renal excretion of radioactivity (mainly in the form of metabolites)” value in series [5] (setting [8]) was 92.3±4.2 % of the dose. Besides, the “Radioactive dose recovered in feces and urine” value in series [5] (within 96 hours) was > 95 % of dose.
